Converted amounts (≈) assume the structure as drawn.

For experiment [1], the system named is Mycobacterium tuberculosis. Kind of experiment: Antitubercular activity against Mycobacterium tuberculosis H37Rv assessed as bacterial growth inhibition incubated for 7 days by resazurin reduction microplate assay. The format is functional. The settings on record: 168 h, time 7 day.
The test system of experiment [2] is Mycobacterium tuberculosis. The experiment in a line: Antitubercular activity against Mycobacterium tuberculosis H37Rv infected in BALB/c mouse assessed as reduction in bacterial load at 150 mg/kg, po for 10 days by CFU analysis. It is filed as functional. The settings on record: time 10 day.
Experiment [3] concerns Mycobacterium tuberculosis. The experiment in a line: Antitubercular activity against Mycobacterium tuberculosis H37Rv assessed as bacterial growth inhibition incubated for 6 days by resazurin reduction microplate assay. The format is functional. The settings on record: 144 h, time 6 day. On the technique in general: Alamar Blue is a resazurin reagent that responds to reducing activity.

The subject of experiment [4] is Mycobacterium tuberculosis. Kind of experiment: Antitubercular activity against Mycobacterium tuberculosis H37Rv infected in human HepG2 cells assessed as bacterial growth inhibition incubated for 4 weeks by resazurin reduction microtiter assay. The format is functional, organism-based. The settings on record: HepG2, 672 h.
Experiment [5] relates to Mycobacterium tuberculosis. Kind of experiment: Antitubercular activity against Mycobacterium tuberculosis H37Rv infected in BALB/c mouse assessed as reduction in bacterial load at 200 mg/kg, po for 10 days by CFU analysis. The format is functional. The settings on record: time 10 day.
In experiment [6] the test system is Mycobacterium tuberculosis. Kind of experiment: Antitubercular activity against Mycobacterium tuberculosis H37Rv assessed as bacterial growth inhibition incubated for 14 days by agar plate method. It is filed as functional. The settings on record: 336 h, time 14 day.
Experiment [7] relates to Mycobacterium tuberculosis. The experiment in a line: Antitubercular activity against Mycobacterium tuberculosis H37Rv infected in human THP-1 cells assessed as bacterial growth inhibition incubated for 48 hrs by PrestoBlue staining based fluorescence analysis. The format is functional, organism-based. The settings on record: THP-1, 48 h.
The test system of experiment [8] is Mycobacterium tuberculosis. The experiment in a line: Antitubercular activity against Mycobacterium tuberculosis H37Rv infected in BALB/c mouse assessed as reduction in bacterial load at 100 mg/kg, po for 10 days by CFU analysis. The format is functional. The settings on record: time 10 day.
For experiment [9], the system named is Mycobacterium tuberculosis. The experiment in a line: Antitubercular activity against Mycobacterium tuberculosis Erdman assessed as bacterial growth inhibition incubated for 14 days by agar plate method. It is filed as functional. The settings on record: 336 h, time 14 day.
Experiment [10] deals with Mycobacterium marinum. Kind of experiment: Antitubercular activity against Mycobacterium marinum strain M assessed as bacterial growth inhibition incubated for 14 days by agar plate method. The format is functional. The settings on record: 336 h, time 14 day.
Experiment [11] deals with Mycobacterium tuberculosis. The experiment in a line: Antitubercular activity against Mycobacterium tuberculosis H37Rv assessed as bacterial growth inhibition by microdilution method. It is filed as functional.
The subject of experiment [12] is Mycobacterium tuberculosis. The experiment in a line: Antitubercular activity against Mycobacterium tuberculosis H37Rv assessed as bacterial growth inhibition. It is filed as functional.
Experiment [13] deals with Mycobacterium avium. Kind of experiment: Antitubercular activity against Mycobacterium avium assessed as bacterial growth inhibition. It is filed as functional.
In experiment [14] the test system is Mycobacterium tuberculosis. Kind of experiment: Antitubercular activity against Mycobacterium tuberculosis H37Rv TMC102 assessed as bacterial growth inhibition. The format is functional.
Experiment [15] deals with Mycolicibacterium smegmatis. The experiment in a line: Antitubercular activity against Mycobacterium smegmatis ATCC 607 assessed as zone of inhibition incubated 30 hrs by Kirby-Bauer disc diffusion assay. It is filed as functional.
For experiment [16], the system named is Mycobacterium tuberculosis. The experiment in a line: In vivo antimycobacterial activity against Mycobacterium tuberculosis H37Rv infected in C57BL/6 mouse assessed as reduction in bacterial load in lung at 10 mg/kg, po and measured after 10 days by CFU analysis. The format is functional. The settings on record: time 10 day.
Experiment [17] has as its system Mycobacterium tuberculosis. Kind of experiment: In vivo antimycobacterial activity against Mycobacterium tuberculosis H37Rv infected in C57BL/6 mouse assessed as reduction in bacterial load in lung at 30 mg/kg, po and measured after 10 days by CFU analysis. It is filed as functional. The settings on record: time 10 day.
Experiment [18] relates to Mycobacterium tuberculosis. Kind of experiment: In vivo antimycobacterial activity against Mycobacterium tuberculosis H37Rv infected in C57BL/6 mouse assessed as reduction in bacterial load in spleen at 10 mg/kg, po and measured after 10 days by CFU analysis. The settings on record: time 10 day. The format is functional.
The test system of experiment [19] is Mycobacterium tuberculosis. Kind of experiment: In vivo antimycobacterial activity against Mycobacterium tuberculosis H37Rv infected in C57BL/6 mouse assessed as reduction in bacterial load in spleen at 30 mg/kg, po and measured after 10 days by CFU analysis. It is filed as functional. The settings on record: time 10 day.
The subject of experiment [20] is Mycobacterium tuberculosis. The experiment in a line: Antitubercular activity against Mycobacterium tuberculosis H37Rv assessed as extracellular bacterial growth inhibition. The format is functional.
The test system of experiment [21] is Mycobacterium tuberculosis. Kind of experiment: Antitubercular activity against Mycobacterium tuberculosis H37Rv assessed as intracellular bacterial growth inhibition. It is filed as functional.
Experiment [22] has as its system Mycolicibacterium smegmatis. The experiment in a line: Antitubercular activity against Mycobacterium smegmatis assessed as bacterial growth inhibition. It is filed as functional.
The subject of experiment [23] is Mycobacterium tuberculosis. The experiment in a line: In vivo antimycobacterial activity against Mycobacterium tuberculosis H37Rv infected in BALB/c mouse assessed as reduction in bacterial load in lung at 50 mg/kg, po and measured after 3 weeks. It is filed as functional.
The subject of experiment [24] is Mycobacterium tuberculosis. The experiment in a line: In vivo antimycobacterial activity against Mycobacterium tuberculosis H37Rv infected in BALB/c mouse assessed as reduction in bacterial load in lung at 100 mg/kg, po and measured after 3 weeks. The format is functional.
Experiment [25] has as its system Mycobacterium tuberculosis. Kind of experiment: In vivo antimycobacterial activity against Mycobacterium tuberculosis H37Rv infected in BALB/c mouse assessed as reduction in bacterial load in lung at 200 mg/kg, po and measured after 4 weeks. The format is functional.
Experiment [26] concerns Mycobacterium tuberculosis. Kind of experiment: Antitubercular activity against Mycobacterium tuberculosis H37Rv assessed as bacterial growth inhibition in presence of clavulanate by checkerboard assay. The format is functional.
In experiment [27] the test system is Mycobacterium tuberculosis. The experiment in a line: Antitubercular activity against Mycobacterium tuberculosis H37Rv assessed as bacterial growth inhibition by checkerboard assay. The format is functional.

Regarding `CCSc1nc(NC)c2ccc(F)c(F)c2n1`, the minimum inhibitory concentration (MIC) (usually the lowest concentration found to suppress growth) in experiment [1] amounted to 0.02 µg/mL (≈ 0.0783 µM). Moreover, the Activity in [2] worked out at 0.5 log10CFU.
For the molecule `O=C(/C=C/c1cccs1)N1CCN(Cc2ccc3c(c2)OCO3)CC1`, in experiment [3], the MIC was found to be 0.05 µg/mL (≈ 0.14 µM). Besides, the 50% inhibitory concentration (IC50) (usually the concentration that inhibits the measured activity by half) in [4] came to 0.1 µg/mL (≈ 0.281 µM). The Activity in experiment [5] is 0.4 log10CFU.
As to `Cc1cc2oc(=O)cc(-c3ccccc3)c2c(C)c1-c1ccc(CN2CCOCC2)cc1`, in [6], the MIC came to 0.42 µM (≈ 0.179 µg/mL).
Regarding `O=C(/C=C/c1cscn1)N1CCN(Cc2ccc3c(c2)OCO3)CC1`, in experiment [3], the minimum inhibitory concentration (MIC) stood at 0.1 µg/mL (≈ 0.28 µM). Besides, in experiment [7], the IC50 was 0.2 µg/mL (≈ 0.56 µM). Moreover, in experiment [8], the Activity was found to be 0.6 log10CFU.
In the case of `Cc1cc2oc(=O)cc(-c3cccc(N)c3)c2c(C)c1-c1ccc(CN2CCOCC2)cc1`, the minimal inhibitory concentration (MIC) in experiment [6] stood at 0.24 µM (≈ 0.106 µg/mL); in [9], 0.4 µM (≈ 0.176 µg/mL); in [10] it was 0.83 µM (≈ 0.366 µg/mL).
`COC(=O)c1c(NC(=O)c2c(F)c(F)c(F)c(F)c2F)sc2c1CCCCC2`: in [11], the MIC was determined as 1 µM.
Turning to `COc1nc2ccc(Br)cc2cc1[C@@H](c1ccccc1)[C@@](O)(CCN(C)C)c1cccc2ccccc12` [BEDAQUILINE], the MIC in [12] was 0.03 µg/mL (≈ 0.054 µM); in experiment [13], 0.01 µg/mL (≈ 0.018 µM).
Regarding `O=C(Nc1ccc(F)c(F)c1F)NC12CC3CC(CC(C3)C1)C2`, the MIC in experiment [14] worked out at 0.1 µg/mL (≈ 0.308 µM).
Take `C=CCN1C(=O)NC(=O)/C(=C/NNC(=O)c2ccncc2)C1=O`: in experiment [15], the “inhibition zone (IZ)” value worked out at 20 mm. Also, the Activity in experiment [16] is given as 1 log10CFU; in experiment [17], 2.1 log10CFU; in experiment [18], 0.6 log10CFU; in experiment [19], 1.3 log10CFU.
On to `COc1ccc(OCCNC(=O)c2cc([N+](=O)[O-])cc([N+](=O)[O-])c2)cc1`, for which the minimum inhibitory concentration (MIC) in [20] and in [21] was 0.2 µM (≈ 0.0723 µg/mL) throughout.
`CCOC(=O)NC(=O)c1ccsc1NC(=O)c1nc2ccncc2s1`: in experiment [22], the minimum inhibitory concentration (MIC) was 0.089 µM (≈ 0.0335 µg/mL). In addition, the Activity is listed as 1.7 log10CFU in experiment [23], 2.3 log10CFU in experiment [24] and more than 1.7 log10CFU in experiment [25].
As to `CO[C@H]1CCC[C@H]2C1=C(C(=O)OC(C)OC(=O)OC1CCCCC1)N1C(=O)[C@H]([C@@H](C)O)[C@@H]21` (some centres not stated) [SANFETRINEM CILEXETIL], the MIC in [26] turned out to be 5 µM; in experiment [27] it was 7.5 µM.
Consider `O=C(/C=C/c1ccccc1)N1CCN(Cc2ccc3c(c2)OCO3)CC1`, for which the minimal inhibitory concentration (MIC) in experiment [3] came out at 0.2 µg/mL (≈ 0.571 µM). Further, the concentration for half-maximal inhibition (IC50) in experiment [7] amounted to 0.3 µg/mL (≈ 0.856 µM). Further, in experiment [8], the Activity is 0.9 log10CFU.

The values above are taken from ChEMBL document CHEMBL5260858, “Targeting mycobacterial membranes and membrane proteins: Progress and limitations” (Bioorg Med Chem, 2023).
